This assay concerns thromboxane receptor. The assay is described as follows: Absence of Agonist Activity (pressor response in pithed rats). The format is in vivo, rat. An excerpt: 3. Absence of Agonist Activity.

The results in this text go back to patent US5849766A, “Carbamoyl substituted heterocycles” (Eli Lilly and Company, priority 1997, dated 1998).

Take `O=C(O)CCC/C=C\CC1C2CCC(C2)C1NS(=O)(=O)c1ccccc1` (centres unmarked) [Example S-145]: the “increase in the mean arterial pressure” value (0.1 mg/kg i.v., at one minute after dosing) is on record as “transient, but significant, increase in the mean arterial pressure”.

`O=C(O)CCCC/C=C(\c1ccc(-c2nc(C(=O)NCCCCC3CCCCC3)co2)cc1)c1cccnc1` [Example 2, (E)-7-[4-[4-[[(4-Cyclohexylbutyl)amino]carbonyl]-2-oxazolyl]phenyl]-7-(3-pyridyl)hept-6-enoic Acid]: the “pressor response (TXA2 agonist activity)” value (i.v., pithed rats, doses up to 10 mg/kg) is reported as “absence of a pressor response”.
